“Also recorded” adds a separate entry of the source.
What was measured:
[1] = target: T1, αS (Homo sapiens, UniProt P37840); conditions: in vitro; cited from earlier work
[2] = system: C. elegans αS model; conditions: cited from earlier work; for formation of αS aggregates: C. elegans model of PD in vivo
[3] = system: mouse models of PD; conditions: mouse models of PD (constipation due to overexpression of human αS); cited from earlier work
[4] = system: IPANs (intrinsic primary afferent neuron); conditions: perfusion through the lumen of isolated bowel segment from the PD mouse model; cited from earlier work
[5] = dilactate salt, single and repeat intravenous administration, alone or in combination; cited from earlier work
[6] = following systemic administration, mice, into the duodenum through the biliary tract; cited from earlier work
[7] = system: gastrointestinal motility; conditions: prior studies; cited from earlier work
[8] = Safety and adverse event (AE) profile, Phase 2 trial of oral squalamine (ENT-01); assay type: in vivo, human
Experimental: (§1) Tolerability limits included diarrhea or vomiting.
(§2) In Stage 2, 34 patients were evaluated.

[9] = system: patients with PD and constipation; experiment: Effect on bowel function (prokinetic response, stool diary indices), Phase 2 trial; assay type: in vivo, human; conditions: patients with baseline ≥1 CSBM/week
Experimental: Following successful screening, all subjects underwent a 14-day run-in period where the degree of constipation was assessed through a validated daily log (Zinsmeister et al. 2013) establishing baseline CSBMs/week. Subjects with an average of <3 CSBMs/week proceeded to dosing.
as §1, §2
The primary efficacy outcome variable was whether or not a subject was a “success” or “failure”. This is an endpoint based on subject diary entries for the “fixed dose” period prior to the endpoint assessment defined as average complete stool frequency increase by 1 or more over baseline, or 3 or more complete spontaneous stools/week. The subject was deemed a “success” if s/he met one or more of the criteria listed above, otherwise the subject was deemed a “failure”. The primary analysis was based on all subjects with a baseline assessment and an assessment at the end of the “fixed-dose” period and was a comparison of the proportion of successes with 0.10 (the null hypothesis corresponding to no treatment effect).

[10] = system: patients with PD; experiment: CNS symptoms in Stage 2 (UPDRS, MMSE, PDHQ, BDI-II); assay type: in vivo, human; conditions: during treatment; 5 patients with hallucinations and 1 with delusions at baseline
Excerpt: Exploratory end-points, in addition to constipation, included for example, (i) depression assessed using the Beck Depression Inventory (BDI-II) (Steer et al. 2000) and Unified Parkinson's Disease Rating Scale (UPDRS); (ii) cognition assessed using the Mini Mental State Examination (MMSE) (Palsteia et al. 2018), Unified Parkinson's Disease Rating Scale (UPDRS), and Trail Making Test (TMT); (iii) sleep and REM-behavior disorder (RBD) using a daily sleep diary, I-Button Temperature Assessment, a REM sleep behavior disorder (RBD) questionnaire (RBDQ) (Stiasny-Kolster et al. 2007), and the UPDRS; (iv) hallucinations assessed using the PD hallucinations questionnaire (PDHQ) (Papapetropoulos et al. 2008), the UPDRS, and direct questioning; (v) fatigue using the Parkinson's Disease Fatigue Scale (PFS-16) and the UPDRS; (vi) motor functions using the UPDRS; and (vii) non-motor functions using the UPDRS.
(§3) Assessments were made at baseline and at the end of the fixed dose and washout periods. Circadian system status was evaluated by continuously monitoring wrist skin temperature (Thermochron iButton DS1921H; Maxim, Dallas) following published procedures (Sarabia et al. 2008).
An exploratory analysis was done with respect to the sleep data, the body temperature data, mood, fatigue, hallucinations, cognition and other motor and non-motor symptoms of PD. […]

[11] = system: patients with PD; experiment: Circadian rhythm of wrist skin temperature (I-Button); assay type: in vivo, human; conditions: fixed dose vs baseline, 12 evaluable patients
Experimental: (6) I-Button Temperature Assessment. The I-Button is a small, rugged self-sufficient system that measures temperature and records the results in a protected memory section. The Thermochron I-Button DS1921H (Maxim Integrated, Dallas, Tex.) was used for skin temperature measurement. I-Buttons were programmed to sample every 10 mins., and attached to a double-sided cotton sport wrist band using Velcro, with the sensor face of the I-Button placed over the inside of the wrist, on the radial artery of the dominant hand. Subjects removed and replaced the data logger when necessary (i.e., to have a bath or shower). […] From the collected data, the mesor, amplitude, acrophase (time of peak temperature), Rayleight test (an index of interdaily stability), mean waveforms are calculated.);
as §3
Circadian rhythm of skin temperature was evaluable in 12 patients (i.e., those who had recordings that extended from baseline through washout). Circadian system functionality was evaluated by continuously monitoring wrist skin temperature using a temperature sensor (Thermochron iButton DS1921H; Maxim, Dallas, Tex.) (Sarabia et al. 2008). […]

[12] = Preclinical studies of oral squalamine (ENT-01) in rats; assay type: in vivo; conditions: rat, oral dosing of radioactive ENT-01, portal blood concentrations
[13] = Solubility in water; assay type: physicochemical; conditions: phosphate salt
[14] = target: T1, αS; conditions: in vitro; cited from earlier work; remark: listed apart in the source
[15] = Stage 2, 34 dosed, unrelated to ENT-01

Structure (SMILES): CC(C)[C@@H](CC[C@@H](C)[C@H]1CC[C@H]2[C@@H]3[C@H](O)C[C@H]4C[C@@H](NCCCNCCCCN)CC[C@]4(C)[C@H]3CC[C@]12C)OS(=O)(=O)O [squalamine]
- formation of αS aggregates [1]: inhibits the formation of αS aggregates
- formation of αS aggregates [2]: inhibits the formation of αS aggregates
- muscle paralysis / motor dysfunction ([2]; C. elegans αS model): reverses motor dysfunction; also recorded: complete reversal of muscle paralysis
- effect on gastrointestinal motility [3]: stimulates gastro-intestinal motility; also recorded: restores gastrointestinal motility; also recorded: reverse gastrointestinal dysmotility
- effect on IPANs [4]: excitation of IPANs
- well tolerated dose [5]: at least 300 mg/m^2
- clearance and excretion [6]: cleared by the liver and excreted as the intact molecule
- gastrointestinal motility after intravenous administration [7]: not associated with increased gastrointestinal motility

Structure (SMILES): CC(C)[C@@H](CC[C@@H](C)[C@H]1CC[C@H]2[C@@H]3[C@H](O)C[C@H]4C[C@@H](NCCCNCCCCN)CC[C@]4(C)[C@H]3CC[C@]12C)OS(=O)(=O)O (single isomer, unassigned) [squalamine (ENT-01)]
- Blood in urine, Mild [8, 15]: 0 n
- Loss of appetite, Mild [8, 15]: 0 n
- Lower GI bleed, Severe ([8]; Stage 2, colonic diverticulosis, polyp, patient on aspirin, Plavix and naproxen, unrelated to ENT-01): 1 n
- patients with worsening of hemorrhoids ([8]; both stages, 1/44 patients): 2.2%
- patients with worsening of acid reflux ([8]; both stages, 2/44 patients): 4.5%
- patients with flatulence ([8]; both stages, 3/44 patients): 6.8%
- patients with vomiting ([8]; both stages, 3/44 patients): 6.8%
- patients with dizziness ([8]; both stages, 8/44 patients): 18%
- patients with abdominal pain ([8]; both stages, 11/44 patients): 32%
- mean dose required for a bowel (prokinetic) response [9]: 120 mg
- hallucinations and delusions improved or disappeared [10]: 5 of 6
- markers of circadian function (IS, RA, CFI, IV) of wrist skin temperature rhythm [11]: improved all markers of healthy circadian function
- absorption from the intestine [12]: low
- solubility in water ([13]; neutral pH): weakly soluble in water
- dissolution in water ([13]; pH<3.5 (the pH of gastric fluid)): readily dissolves
- formation of αS aggregates [1]: inhibit the formation of aggregates of αS
- formation of αS aggregates [2]: inhibit the formation of aggregates of αS
- displacement of αS from membranes [14]: displace αS from membranes
